Measurements from patent US20240279231A1, “MAP4K4 INHIBITORS AND METHODS OF SYNTHESIS AND USE THEREOF” (The Board of Regents of the University of Oklahoma, priority 2021, published 2024).

Key:
[1] = Stability on reflux in dioxane-HCl; assay type: physicochemical; conditions: refluxed in dioxane-HCl for 6 h
Description: (§1) First, we attempted base-catalyzed O-alkylation in a variety of conditions (Table 1). […] We also screened various solvents combined with different bases to get DMX-5804. […] However, DMX-5804 was obtained only in small amounts (5-7%), whereas compound 7 was isolated as the major product (88%). To check the stability of compound 7, we refluxed it in dioxane-HCl for 6 h. […] Also, its HPLC retention time was identical to that of DMX-5804 (data not shown).

[2] = Solubility in polar solvents; assay type: physicochemical; conditions: compared with DMX-5804
Description: as §1

[3] = target: T1, recombinant MAP4K4 enzyme (Homo sapiens, UniProt O95819); assay: MAP4K4 inhibition assay (cell free, MBP substrate, ADP detection); assay type: biochemical; conditions: for IC50: recombinant MAP4K4, MBP substrate, 48 μM ATP, compounds titrated from 900 nM, read-out: concentration for 50% inhibition of MAP4K4 (IC50)
T1 construct: purchased BioAssay Systems Services (Hayward, CA)
T1 sequence (O95819 whole entry): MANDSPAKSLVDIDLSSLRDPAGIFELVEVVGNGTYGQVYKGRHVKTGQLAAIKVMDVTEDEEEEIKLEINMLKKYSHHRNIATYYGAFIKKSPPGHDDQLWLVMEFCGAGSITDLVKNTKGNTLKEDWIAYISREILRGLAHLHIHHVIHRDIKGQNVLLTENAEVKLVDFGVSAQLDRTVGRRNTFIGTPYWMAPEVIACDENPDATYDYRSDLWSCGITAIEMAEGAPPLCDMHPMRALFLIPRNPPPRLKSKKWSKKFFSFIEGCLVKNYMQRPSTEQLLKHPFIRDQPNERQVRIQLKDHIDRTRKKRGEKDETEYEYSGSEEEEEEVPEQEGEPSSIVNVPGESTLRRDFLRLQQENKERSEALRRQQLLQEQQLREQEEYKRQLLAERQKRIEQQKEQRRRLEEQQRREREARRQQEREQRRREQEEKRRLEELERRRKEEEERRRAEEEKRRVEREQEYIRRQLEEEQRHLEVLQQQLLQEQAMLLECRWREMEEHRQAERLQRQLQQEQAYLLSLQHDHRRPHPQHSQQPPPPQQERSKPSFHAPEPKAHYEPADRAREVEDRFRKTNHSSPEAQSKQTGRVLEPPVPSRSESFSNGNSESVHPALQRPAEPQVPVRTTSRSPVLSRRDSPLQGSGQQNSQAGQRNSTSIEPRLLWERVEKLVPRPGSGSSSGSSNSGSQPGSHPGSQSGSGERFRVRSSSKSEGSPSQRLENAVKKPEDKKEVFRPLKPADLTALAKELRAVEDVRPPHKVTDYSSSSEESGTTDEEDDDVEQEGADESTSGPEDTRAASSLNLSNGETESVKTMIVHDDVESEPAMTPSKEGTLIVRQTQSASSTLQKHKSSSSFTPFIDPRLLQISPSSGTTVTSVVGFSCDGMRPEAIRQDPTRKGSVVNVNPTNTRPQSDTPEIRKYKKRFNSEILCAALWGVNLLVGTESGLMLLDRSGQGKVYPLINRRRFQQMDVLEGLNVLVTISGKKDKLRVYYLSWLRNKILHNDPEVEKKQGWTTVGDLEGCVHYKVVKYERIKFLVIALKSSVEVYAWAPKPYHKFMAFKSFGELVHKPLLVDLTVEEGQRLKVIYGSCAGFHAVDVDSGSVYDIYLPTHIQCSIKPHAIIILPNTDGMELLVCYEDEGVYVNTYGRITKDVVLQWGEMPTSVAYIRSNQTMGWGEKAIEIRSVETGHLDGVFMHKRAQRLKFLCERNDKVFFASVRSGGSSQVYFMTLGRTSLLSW
Description: MAP4K4 inhibition assay: MAP4K4 assay for IC50 determination was performed using a kit by BioAssay Systems Services (Hayward, CA). Briefly, MAP4K4 in assay buffer (40 ng in 10 μL) was incubated with varying concentrations of test compounds (5 μL in dimethylsulfoxide) for 15 min at 37° C. The compounds were titrated from 900 nM (final reaction concentration) in 3× steps. Compound dilutions were made in assay buffer with 0.036% dimethylsulfoxide. Reactions were initiated by adding 5 μL reaction mix (2.6 μg/μL MBP, 193 μM ATP; final reaction concentration of 13 μg MBP, 48 μM ATP) and run at 37° C. for 20 min. These kinase reactions were stopped with an ADP detection reagent and fluorescence was measured at 530Ex/590Em. IC50 was computed using GraphPad Prism Nonlinear Sigmoidal Dose-Response fitting.
MAP4K4 inhibition assay: The MAP4K4 inhibitory activity of DMX-5804, Ribose-analog 9, and regio-isomer 7 were examined in a cell free assay using recombinant MAP4K4 enzyme and myelin basic protein (MBP) as its substrate.

[4] = Solubility in aqueous medium; assay type: physicochemical
From the text: In order to shift alkylation to desired phenolic site, we changed reaction conditions to acidic by using boron trifluoride diethyl etherate as a Lewis acid (entries 9-11 of Table 1). […] Hypothesizing that the relatively low separated yields of this reaction are due to the insolubility of phenolic derivative in dichloromethane, we decided to perform this reaction in neat conditions with BF3OEt2. This modification produced satisfactory yields of DMX-5804 (entry 10). Further, we added excess of methylglycol as a solvent as well as a reactant in presence of BF3OEt2 to obtain quantitative yields of DMX-5804 in good time (entry 11). In these acidic conditions, the other regioisomer (pyrimidine alkylated compound 7) was completely absent. Previously, the use of BF3OEt2 for phenolic alkylation has been reported. In addition to the compound DMX-5804, we employed this route for synthesis of ribose- and glucose-conjugated analogs. […]

[5] = mouse infarct model; cited from earlier work
[6] = system: cardiomyocyte; conditions: oxidative stress-induced, in vitro and in vivo; cited from earlier work
[7] = compared with F1386-0303; cited from earlier work

SMILES	stability in acidic conditions [1]	melting point	solubility in polar solvents [2]	MAP4K4 inhibitory activity ([3]; concentration range tested (titrated from 900 nM in 3× steps))	solubility in aqueous medium [4]	infarct size [5]	cardiomyocyte death [6]	bioavailability in vivo [7]	IC50 [3]
COCCOc1ncnc2c1c(-c1ccc(O)cc1)cn2-c1ccccc1 (single isomer, unassigned) [Compound 7, 4-(4-(2-methoxyethoxy)-7-phenyl-7H-pyrrolo[2,3-d]pyrimidin-5-yl)phenol]	stable in acidic conditions	221 to 224 °C	significantly better than DMX-5804	no inhibitory activity in the concentration range tested	–	–	–	–	–
COCCOc1ccc(-c2cn(-c3ccccc3)c3nc[nH]c(=O)c23)cc1 [DMX-5804, 5-(4-(2-methoxyethoxy)phenyl)-7-phenyl-3,7-dihydro-4H-pyrrolo[2,3-d]pyrimidin-4-one]	–	–	–	–	virtually insoluble	significant reduction of infarct size	reduces cardiomyocyte death both in vitro and in vivo	better bioavailability in vivo than F1386-0303	206 nM
O=c1[nH]cnc2c1c(-c1ccc(OC3OC(CO)C(O)C3O)cc1)cn2-c1ccccc1 (stereo not shown) [Compound 9, 5-(4-((3,4-dihydroxy-5-(hydroxymethyl)tetrahydrofuran-2-yl)oxy)phenyl)-7-phenyl-3,7-dihydro-4H-pyrrolo[2,3-d]pyrimidin-4-one]	–	–	–	–	–	–	–	–	256 nM
